The source of these data is PubChem BioAssay AID330 (DTP/NCI, 2004).

The test system of this assay is P388 leukemia ip, CD2F1 mice, survival T/C. The experiment in a line: NCI In Vivo Anticancer Drug Screen. Data for tumor model P388 Leukemia (intraperitoneal) in CD2F1 (CDF1) mice. The conditions noted are these: endpoint: median survival time, higher = longer survival. The procedure, abridged:
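Mice carrying the transplanted tumor received test compound or vehicle. Survival was recorded in each group, and the value is the treated-group measurement divided by that of the vehicle-treated control group.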

Setting [1] is: dose: 50.0 mg/kg/injection, schedule: Q01DX009 (ip), vehicle: other.
The mark [2] stands for this setting: dose: 50.0 mg/kg/injection, schedule: Q01DX009 (ip), vehicle: saline with Tween-80.
Where [3] appears, read: dose: 100.0 mg/kg/injection, schedule: Q01DX009 (ip), vehicle: saline with Tween-80.
Where [4] appears, read: dose: 200.0 mg/kg/injection, schedule: Q01DX009 (ip), vehicle: saline with Tween-80.
[5] abbreviates: dose: 50.0 mg/kg/injection, schedule: Q01DX005 (ip), vehicle: saline.
Setting [6] is: dose: 100.0 mg/kg/injection, schedule: Q01DX005 (ip), vehicle: saline.

Where “and” joins values, the source holds several entries; their conditions need not be identical. Equal values may be shown once. Inconclusive results and toxic doses are left out.

Turning to `O=c1[nH]c(=O)n(C2CC(O)C(CO)O2)cc1C(F)(F)F` (stereo not given), the T/C (dose: 20.0 mg/kg/injection, schedule: Q01DX009 (ip), vehicle: saline with Tween-80) was 111 % of control; the T/C (dose: 31.25 mg/kg/injection, schedule: Q01DX009 (ip), vehicle: Klucel (hydroxypropylcellulose) (HPC)) is 120 % of control; the T/C (dose: 40.0 mg/kg/injection, schedule: Q01DX009 (ip), vehicle: saline with Tween-80) was 117 % of control; the T/C (dose: 62.5 mg/kg/injection, schedule: Q01DX009 (ip), vehicle: Klucel (hydroxypropylcellulose) (HPC)) is 151 % of control; the T/C (dose: 80.0 mg/kg/injection, schedule: Q01DX009 (ip), vehicle: saline with Tween-80) was 119 % of control; the T/C (dose: 125.0 mg/kg/injection, schedule: Q01DX005 (ip), vehicle: Klucel (hydroxypropylcellulose) (HPC)) was 152 % of control. The T/C reads like this: (dose: 125.0 mg/kg/injection, schedule: Q01DX009 (ip), vehicle: Klucel (hydroxypropylcellulose) (HPC)) 178 % of control and 183 % of control; (dose: 160.0 mg/kg/injection, schedule: Q01DX009 (ip), vehicle: saline with Tween-80) 111 % of control; (dose: 250.0 mg/kg/injection, schedule: Q01DX005 (ip), vehicle: Klucel (hydroxypropylcellulose) (HPC)) 161 % of control; (dose: 250.0 mg/kg/injection, schedule: Q01DX009 (ip), vehicle: Klucel (hydroxypropylcellulose) (HPC)) 176 % of control; (dose: 320.0 mg/kg/injection, schedule: Q01DX009 (ip), vehicle: saline with Tween-80) 102 % of control; (dose: 500.0 mg/kg/injection, schedule: Q01DX005 (ip), vehicle: Klucel (hydroxypropylcellulose) (HPC)) 151 % of control. Also, the T/C is 100 % of control and 104 % of control (dose: 500.0 mg/kg/injection, schedule: Q01DX009 (ip), vehicle: Klucel (hydroxypropylcellulose) (HPC)); 88 % of control (dose: 640.0 mg/kg/injection, schedule: Q01DX009 (ip), vehicle: saline with Tween-80).
Consider `COC1=C(OC)C(=O)C(CO)=CC1=O`, for which the T/C was 104 % of control (dose: 7.5 mg/kg/injection, schedule: Q01DX005 (ip), vehicle: saline) and 87 % of control (dose: 15.0 mg/kg/injection, schedule: Q01DX005 (ip), vehicle: saline).
In the case of `COc1cc(CC2c3cc(OC)c(OC)cc3CCN2C)c(NC(=O)c2ccc(C(=O)Nc3cc(OC)c(OC)cc3CC3c4cc(OC)c(OC)cc4CCN3C)cc2)cc1OC` (stereo not given), the T/C was 90 % of control (dose: 12.5 mg/kg/injection, schedule: Q01DX009 (ip), vehicle: other); 92 % of control (dose: 25.0 mg/kg/injection, schedule: Q01DX009 (ip), vehicle: other); 86 % of control under setting [1]; 92 % of control (dose: 200.0 mg/kg/injection, schedule: Q01DX009 (ip), vehicle: other); 104 % of control (dose: 400.0 mg/kg/injection, schedule: Q01DX009 (ip), vehicle: other).
With `CN1CCN(C(=O)N2CCCc3ccccc32)CC1`, the T/C (dose: 100.0 mg/kg/injection, schedule: Q04DX003 (ip), vehicle: saline) was 101 % of control and the T/C (dose: 200.0 mg/kg/injection, schedule: Q04DX003 (ip), vehicle: saline) is 99 % of control.
Regarding `O=C1OCC/C1=C1/NCCNC1=O`, the T/C runs as follows: under setting [2], 91 % of control; under setting [3], 116 % of control; under setting [4], 109 % of control.
With `CCOC(=O)CCC(=O)Oc1ccc2c(c1OC(=O)CCC(=O)OCC)C(=O)c1ccccc1C2=O`, the T/C is 97 % of control (dose: 60.0 mg/kg/injection, schedule: Q01DX005 (ip), vehicle: Klucel (hydroxypropylcellulose) (HPC)); 97 % of control (dose: 120.0 mg/kg/injection, schedule: Q01DX005 (ip), vehicle: Klucel (hydroxypropylcellulose) (HPC)); 95 % of control (dose: 240.0 mg/kg/injection, schedule: Q01DX005 (ip), vehicle: Klucel (hydroxypropylcellulose) (HPC)).
`COC1CC23OC2(C1)C1C=CC3N(C(=O)OCC(Cl)(Cl)Cl)N1C(=O)OCC(Cl)(Cl)Cl` (stereo not given): the T/C by setting is: (dose: 50.0 mg/kg/injection, schedule: Q01DX005 (ip), vehicle: Klucel (hydroxypropylcellulose) (HPC)) 102 % of control; (dose: 100.0 mg/kg/injection, schedule: Q01DX005 (ip), vehicle: Klucel (hydroxypropylcellulose) (HPC)) 105 % of control; (dose: 200.0 mg/kg/injection, schedule: Q01DX005 (ip), vehicle: Klucel (hydroxypropylcellulose) (HPC)) 102 % of control.
Consider `CCOC(=O)c1c(C)cc2c(CO)n[nH]c(=O)c2c1C`, for which the T/C by setting is: under setting [2], 102 % of control; under setting [3], 100 % of control; under setting [4], 99 % of control.
For `CCOP(=O)(CC1OCCCO1)OCC`, the T/C is 98 % of control (dose: 50.0 mg/kg/injection, schedule: Q01DX009 (ip), vehicle: saline); 100 % of control (dose: 100.0 mg/kg/injection, schedule: Q01DX009 (ip), vehicle: saline); 102 % of control (dose: 200.0 mg/kg/injection, schedule: Q01DX009 (ip), vehicle: saline).
With `C[Si]c1ccccc1CN(C)C`, the T/C was 106 % of control under setting [5] and 102 % of control under setting [6].
With `CC(=O)OC1CCC2(C)C(C1)CC(OC(C)=O)C1C2CC(OC(C)=O)C2(C)C(C(C)CC(=O)C(=O)c3ccccc3)CCC12` (stereo not given), the T/C under setting [2] is 103 % of control, the T/C under setting [3] is 94 % of control and the T/C under setting [4] was 98 % of control.
With `c1ccc2c3cc(cc2c1)OCCOCCOCCOCCOCCOc1ccc2ccccc2c1-3`, the T/C runs as follows: under setting [2], 101 % of control; under setting [3], 101 % of control; under setting [4], 103 % of control.
Consider `CC(=O)Oc1ccc(C2c3cc(OC(C)=O)c(OC(C)=O)cc3CC3C(=O)OCC32)cc1OC(C)=O` (stereo not given), for which the T/C is, setting by setting: (dose: 50.0 mg/kg/injection, schedule: Q01DX005 (ip), vehicle: distilled water + alcohol) 102 % of control; (dose: 100.0 mg/kg/injection, schedule: Q01DX005 (ip), vehicle: distilled water + alcohol) 96 % of control; (dose: 200.0 mg/kg/injection, schedule: Q01DX005 (ip), vehicle: distilled water + alcohol) 100 % of control.
Consider `COc1ccccc1-n1c(=O)c(N=Nc2ccccc2)c(O)n(-c2ccccc2Cl)c1=S`, for which the T/C reads like this: (dose: 100.0 mg/kg/injection, schedule: Q01DX001 (ip), vehicle: Klucel (hydroxypropylcellulose) (HPC)) 97 % of control; (dose: 200.0 mg/kg/injection, schedule: Q01DX001 (ip), vehicle: Klucel (hydroxypropylcellulose) (HPC)) 95 % of control; (dose: 400.0 mg/kg/injection, schedule: Q01DX001 (ip), vehicle: Klucel (hydroxypropylcellulose) (HPC)) 94 % of control.
`CC(C)NC(=S)NCc1ccc(Cl)c(Cl)c1`: the T/C under setting [1] was 88 % of control and the T/C (dose: 100.0 mg/kg/injection, schedule: Q01DX009 (ip), vehicle: other) is 96 % of control.
On to `CS(=O)(=O)c1noc(N)n1`, for which the T/C was 115 % of control under setting [5]; 113 % of control under setting [6]; 115 % of control (dose: 200.0 mg/kg/injection, schedule: Q01DX005 (ip), vehicle: saline).
`COc1ccc2c(c1)CCC1(C)C2=CC(=O)/C1=C\[O-].COc1ccc2c(c1)CCC1(C)C2=CC(=O)/C1=C\[O-].[Cu+2]` (stereo not given): the T/C was 90 % of control (dose: 25.0 mg/kg/injection, schedule: Q04DX003 (ip), vehicle: saline with Tween-80); 90 % of control (dose: 50.0 mg/kg/injection, schedule: Q04DX003 (ip), vehicle: saline with Tween-80); 86 % of control (dose: 100.0 mg/kg/injection, schedule: Q04DX003 (ip), vehicle: saline with Tween-80).
